Reference: ChEMBL document CHEMBL1130681, “Synthesis of 5-substituted quinazolinone derivatives and their inhibitory activity in vitro” (Bioorg Med Chem Lett, 1998)

Legend:
Format in all cases: functional, cell-based
CCRF-CEM = experiment: Concentration required to inhibit CCRF-CEM (human leukemia) cell lines
LY3.7.2C TK-/- cell line = experiment: Concentration required to inhibit LY3.7.2C TK-/-(mouse lymphoma, thymidine kinase deficient) cell lines
HT-29 = experiment: Concentration required to inhibit HT-29 (human colon adenocarcinoma) cell lines
L1210 = experiment: Concentration required to inhibit L1210 (mouse lymphocytic leukemia) cell lines

IC50 (CCRF-CEM) [nM]	IC50 (LY3.7.2C TK-/- cell line) [nM]	IC50 (HT-29) [nM]	IC50 (L1210) [nM]	Compound
200	500	600	400	COC(=O)[C@@H](NC(=O)c1ccc(Sc2c(C)ccc3nc(N)nc(O)c23)cc1)c1ccccc1
5400	800	> 20000	2000	Cc1ccc2nc(N)nc(O)c2c1Sc1ccc(C(=O)N[C@H](C(=O)O)c2ccccc2)cc1
200	700	600	700	COC(=O)c1cccc([C@H](NC(=O)c2ccc(Sc3c(C)ccc4nc(N)nc(O)c34)cc2)C(=O)OC)c1

Further lines, the compound ahead of its results:

Compound	IC50 (CCRF-CEM) [nM]	IC50 (LY3.7.2C TK-/- cell line) [nM]	IC50 (HT-29) [nM]	IC50 (L1210) [nM]
COC(=O)[C@@H](NC(=O)c1ccc(Sc2c(C)ccc3nc(N)nc(O)c23)cc1)c1cccc(O)c1	1500	300	8400	2000
Cc1ccc2nc(N)[nH]c(=O)c2c1Sc1ccncc1 [NOLATREXED]	800	1500	3700	1100
Cc1ccc2nc(N)nc(O)c2c1Sc1ccc(C(=O)N[C@H](C(=O)O)c2cccc(C(=O)O)c2)cc1	50	700	1200	500
Cc1ccc2nc(N)nc(O)c2c1Sc1ccc(C(=O)N[C@H](C(=O)O)c2cccc(O)c2)cc1	3400	600	17000	700
